How the values were obtained:
[1] = tested on: Aβ42; assay: Screening for γ-secretase-modulating activity: Aβ42 in supernatant of SKNBE2 cells carrying hAPP 695 wild type (Alphalisa); format: cell-based, human; settings: overnight incubation, Alphalisa on supernatant
Outline: (§1)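 Secreted Aβ42 (C-terminal/N-terminal antibody pair) and Aβtotal (N-terminal/mid-region pair) were quantified by AlphaLISA after overnight compound exposure of wild-type hAPP 695 SKNBE2 cells at 37 °C. Values expressed relative to compound-free maximum, with IC50 from nonlinear 4-parameter regression.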

[2] = tested on: Aβtotal; assay: Screening for γ-secretase-modulating activity: Aβtotal in supernatant of SKNBE2 cells carrying hAPP 695 wild type (Alphalisa); format: cell-based, human; settings: overnight incubation, Alphalisa on supernatant
Outline: as §1

[3] = tested on: Aβ42; assay: In vivo efficacy B-1a: brain soluble Aβ42 in non-transgenic rodents, ELISA; set-up: species or system mouse; settings: dose 30 mg/kg oral dosing, brain soluble fraction, untreated animals (Ctrl) set at 100; for response vs control in vivo at 30 mg/kg: Mus musculus, po, read-out: Aβ42 (% vs Ctrl)_Mean; for Aβ42 (% vs Ctrl)_Mean: 30 mg/kg
From the text: To determine whether acute administration of an Aβ42 lowering agent would reduce Aβ42 levels in vivo, non-transgenic rodents, e.g. mice or rats were used. Animals treated with the Aβ42 lowering agent were examined and compared to those untreated or treated with vehicle and brain levels of soluble Aβ42 and total Aβ were quantitated by standard techniques, for example, using ELISA. Treatment periods varied from hours (h) to days and were adjusted based on the results of the Aβ42 lowering once a time course of onset of effect could be established.
A typical protocol for measuring Aβ42 lowering in vivo is shown but it is only one of many variations that could be used to optimize the levels of detectable Aβ. For example, Aβ42 lowering compounds were formulated in 20% of Captisol® (a sulfobutyl ether of β-cyclodextrin) in water or 20% hydroxypropyl β cyclodextrin. The Aβ42 lowering agents were administered as a single oral dose or by any acceptable route of administration to overnight fasted animals. After 4 h, the animals were sacrificed and Aβ42 levels were analysed.
Blood was collected by decapitation and exsanguinations in EDTA-treated collection tubes. Blood was centrifuged at 1900 g for 10 minutes (min) at 4° C. and the plasma recovered and flash frozen for later analysis. The brain was removed from the cranium and hindbrain. The cerebellum was removed and the left and right hemisphere were separated. The left hemisphere was stored at −18° C. for quantitative analysis of test compound levels. The right hemisphere was rinsed with phosphate-buffered saline (PBS) buffer and immediately frozen on dry ice and stored at −80° C. until homogenization for biochemical assays.
Mouse brains from non-transgenic animals were resuspended in 8 volumes of 0.4% DEA (diethylamine)/50 mM NaCl containing protease inhibitors (Roche-11873580001 or 04693159001) per gram of tissue, e.g. for 0.158 g brain, add 1.264 mL of 0.4% DEA. All samples were homogenized in the FastPrep-24 system (MP Biomedicals) using lysing matrix D (MPBio #6913-100) at 6 m/s for 20 seconds. Homogenates were centrifuged at 20800×g for 5 min and supernatants collected. Supernatants were centrifuged at 221.300×g for 50 min. The resulting high speed supernatants were then transferred to fresh eppendorf tubes. Nine parts of supernatant were neutralized with 1 part 0.5 M Tris-HCl pH 6.8 and used to quantify Aβtotal and Aβ42.
To quantify the amount of Aβtotal and Aβ42 in the soluble fraction of the brain homogenates, Enzyme-Linked-Immunosorbent-Assays were used. Briefly, the standards (a dilution of synthetic Aβ1-40 and Aβ1-42, Bachem) were prepared in 1.5 mL Eppendorf tube in Ultraculture, with final concentrations ranging from 10000 to 0.3 pg/mL. The samples and standards were co-incubated with HRPO-labelled N-terminal antibody JRF/rAμ/2 for Aβ42 detection and with the biotinylated mid-domain antibody 4G8 for Aβtotal detection. 50 μl of conjugate/sample or conjugate/standards mixtures were then added to the antibody-coated plate (the capture antibodies selectively recognize the C-terminal end of Aβ42, antibody JRF/cAβ42/26, for Aβ42 detection and the N-terminus of AB, antibody JRF/rAβ/2, for Aβtotal detection). The plate was allowed to incubate overnight at 4° C. in order to allow formation of the antibody-amyloid complex. Following this incubation and subsequent wash steps the ELISA for Aβ42 quantification was finished by addition of Quanta Blu fluorogenic peroxidase substrate according to the manufacturer's instructions (Pierce Corp., Rockford, Ill.). A reading was performed after 10 to 15 min (excitation 320 nm/emission 420 nm).
In this model a Aβ42 lowering compared to untreated animals would be advantageous, in particular a Aβ42 lowering with at least 10%, more in particular a Aβ42 lowering with at least 20%.
The results are shown in Table 4 (dose 30 mg/kg oral dosing) (value for untreated animals as control (Ctrl) was set at 100): […]

[4] = SKNBE2 human neuroblastoma cells carrying hAPP 695 wild type
[5] = Homo sapiens, SKNBE2, SKNBE2 human neuroblastoma cells carrying hAPP 695 wild type

Structure (SMILES) | IC50 [1, 4] [nM] | IC50 [2, 4] [nM] | IC50 [2, 5] [nM] | IC50 [1, 5] [nM] | response vs control in vivo at 30 mg/kg [3] [%] | Aβ42 (% vs Ctrl)_Mean [3] [% vs Ctrl]
Cc1cn(-c2ccc3[nH]c(-c4nc5n(n4)CCCC5c4ccc(F)cc4C)cc3c2)cn1 (single isomer, unassigned) [Compound 77, 8-(4-fluoro-2-methylphenyl)-5,6,7,8-tetrahydro-2-[5-(4-methyl-1H-imidazol-1-yl)-1H-indol-2-yl]-[1,2,4]triazolo[1,5-a]pyridine] | 24 | > 10000 | – | – | 104 | –
Cc1cc(F)ccc1C1OCCn2cc(-c3cc4nc(-c5cnn(C)c5)ccc4[nH]3)nc21 (single isomer, unassigned) [Compound 102, 8-(4-fluoro-2-methylphenyl)-5,6-dihydro-2-[5-(1-methyl-1H-pyrazol-4-yl)-1H-pyrrolo[3,2-b]pyridin-2-yl]-8H-imidazo[2,1-c][1,4]oxazine] | 89 | > 10000 | – | – | 98 | –
Cc1cc(F)ccc1C1CCCn2nc(-c3[nH]c4ccc(C#N)cc4c3F)nc21 (single isomer, unassigned) [Compound 182, 3-fluoro-2-[8-(4-fluoro-2-methylphenyl)-5,6,7,8-tetrahydro[1,2,4]triazolo[1,5-a]pyridin-2-yl]-1H-indole-5-carbonitrile] | 117 | > 10000 | – | – | 122 | –
Cc1cc(F)ccc1C1CCCn2nc(-c3cc4cc(C#N)ccc4[nH]3)nc21 (stereo not drawn) [Compound 10, 2-[8-(4-fluoro-2-methylphenyl)-5,6,7,8-tetrahydro[1,2,4]triazolo[1,5-a]pyridin-2-yl]-1H-indole-5-carbonitrile] | 102 | > 10000 | – | – | 72 | –
Cc1ccccc1C1CCCn2nc(-c3cc4cc(C#N)ccc4[nH]3)nc21 (stereo not drawn) [Compound 13, 2-[5,6,7,8-tetrahydro-8-(2-methylphenyl)[1,2,4]triazolo[1,5-a]pyridin-2-yl]-1H-indole-5-carbonitrile] | 72 | > 10000 | – | – | 79 | –
N#Cc1ccc2[nH]c(-c3cn4c(n3)C(c3ccccc3Cl)CCC4)cc2c1 (stereo not drawn) [Compound 16, 2-[8-(2-chlorophenyl)-5,6,7,8-tetrahydroimidazo[1,2-a]pyridin-2-yl]-1H-indole-5-carbonitrile] | – | – | > 10000 | 112 | 74 | –
N#Cc1ccc2[nH]c(-c3nc4n(n3)CCCC4c3ccccc3C(F)(F)F)cc2c1 (stereo not drawn) [Compound 18, 2-[5,6,7,8-tetrahydro-8-[2-(trifluoromethyl)phenyl][1,2,4]triazolo[1,5-a]pyridin-2-yl]-1H-indole-5-carbonitrile] | – | – | > 10000 | 117 | 88 | –
N#Cc1ccc2[nH]c(-c3nc4n(n3)CCCC4c3cccc(OC(F)(F)F)c3)cc2c1 (stereo not drawn) [Compound 20, 2-[5,6,7,8-tetrahydro-8-[3-(trifluoromethoxy)phenyl][1,2,4]triazolo[1,5-a]pyridin-2-yl]-1H-indole-5-carbonitrile] | – | – | > 10000 | 275 | 93 | –
Cc1cn(-c2cc3cc(-c4nc5n(n4)CCCC5c4ccccc4C)[nH]c3cn2)cn1 (stereo not drawn) [Compound 30, 5,6,7,8-tetrahydro-2-[5-(4-methyl-1H-imidazol-1-yl)-1H-pyrrolo[2,3-c]pyridin-2-yl]-8-(2-methylphenyl)-[1,2,4]triazolo[1,5-a]pyridine] | – | – | > 10000 | 52 | 91 | –

Second part, led by results:

IC50 [1, 4] [nM] | IC50 [2, 4] [nM] | IC50 [2, 5] [nM] | IC50 [1, 5] [nM] | Structure (SMILES) | response vs control in vivo at 30 mg/kg [3] [%] | Aβ42 (% vs Ctrl)_Mean [3] [% vs Ctrl]
37 | – | > 10000 | – | COc1c(C#N)ccc2[nH]c(-c3nc4n(n3)CCOC4c3c(F)cccc3Cl)cc12 (single isomer, unassigned) [Compound 117, 2-[8-(2-chloro-6-fluorophenyl)-5,6-dihydro-8H-[1,2,4]triazolo[5,1-c][1,4]oxazin-2-yl]-4-methoxy-1H-indole-5-carbonitrile] | 63 | –
87 | – | > 10000 | – | Cc1cc(F)ccc1C1CCCn2cc(-c3cc4cc(C#N)ccc4[nH]3)nc21 (stereo not drawn) [Compound 4, 2-[8-(4-fluoro-2-methylphenyl)-5,6,7,8-tetrahydroimidazo[1,2-a]pyridin-2-yl]-1H-indole-5-carbonitrile] | – | 63
– | – | > 10000 | 105 | Cc1cn(-c2ccc3[nH]c(-c4nc5n(n4)CCCC5c4ccccc4C)cc3n2)cn1.Cl (stereo not drawn) [Compound 5, 5,6,7,8-tetrahydro-2-[5-(4-methyl-1H-imidazol-1-yl)-1H-pyrrolo[3,2-b]pyridin-2-yl]-8-(2-methylphenyl)-[1,2,4]triazolo[1,5-a]pyridine] | 106 | –
– | – | > 10000 | 47 | Cc1cc(-c2ccc3[nH]c(-c4nc5n(n4)CCCC5c4ccccc4C)cc3n2)ccn1 (stereo not drawn) [Compound 6, 5,6,7,8-tetrahydro-8-(2-methylphenyl)-2-[5-(2-methyl-4-pyridinyl)-1H-pyrrolo[3,2-b]pyridin-2-yl]-[1,2,4]triazolo[1,5-a]pyridine] | 79 | –
– | – | > 10000 | 35 | COc1c(C#N)ccc2[nH]c(-c3nc4n(n3)CCCC4c3ccccc3C(F)(F)F)cc12 (stereo not drawn) [Compound 7, 4-methoxy-2-[5,6,7,8-tetrahydro-8-[2-(trifluoromethyl)phenyl][1,2,4]triazolo[1,5-a]pyridin-2-yl]-1H-indole-5-carbonitrile] | 82 | –
– | – | > 10000 | 46 | Cc1cn(-c2ccc3[nH]c(-c4nc5n(n4)CCCC5c4ccccc4C(F)(F)F)cc3c2)cn1 (stereo not drawn) [Compound 8, 5,6,7,8-tetrahydro-2-[5-(4-methyl-1H-imidazol-1-yl)-1H-indol-2-yl]-8-[2-(trifluoromethyl)phenyl]-[1,2,4]triazolo[1,5-a]pyridine] | 41 | –
138 | – | > 10000 | – | Cc1cc(F)ccc1C1CCCn2nc(-c3cc4cc(C#N)ccc4[nH]3)nc21 (stereo not drawn) [Compound 9, 2-[8-(4-fluoro-2-methylphenyl)-5,6,7,8-tetrahydro[1,2,4]triazolo[1,5-a]pyridin-2-yl]-1H-indole-5-carbonitrile] | – | 66
126 | – | > 10000 | – | Cc1ccccc1C1CCCn2nc(-c3cc4cc(C#N)ccc4[nH]3)nc21 (stereo not drawn) [Compound 12, 2-[5,6,7,8-tetrahydro-8-(2-methylphenyl)[1,2,4]triazolo[1,5-a]pyridin-2-yl]-1H-indole-5-carbonitrile] | – | 94
– | – | 832 | 48 | Cc1cn(-c2ccc3[nH]c(-c4nc5n(n4)CCOC5c4ccccc4C(F)(F)F)cc3c2)cn1 (stereo not drawn) [Compound 37, 5,6-dihydro-2-[5-(4-methyl-1H-imidazol-1-yl)-1H-indol-2-yl]-8-[2-(trifluoromethyl)phenyl]-8H-[1,2,4]triazolo[5,1-c][1,4]oxazine] | 64 | –

Source: US9115143B2, “Substituted indole derivatives as gamma secretase modulators” (Janssen Pharmaceuticals, Inc., priority 2011, dated 2015)
